Reference: paper PMC5876303, “Discovery of C-3 Tethered 2-oxo-benzo[1,4]oxazines as Potent Antioxidants: Bio-Inspired Based Design, Synthesis, Biological Evaluation, Cytotoxic, and in Silico Molecular Docking Studies” (Frontiers in Chemistry, 2018)
“Also recorded” adds a separate entry of the source.

Experiments:
[1] = DPPH radical scavenging antioxidant assay; assay type: biochemical; details: Table 1; mean ± SD, n = 3; 517 nm after 20 min
Procedure: In DPPH radical scavenging method the plant extract (0.75 mL) at different concentrations ranging from 10 to 100 μg mL^−1 was mixed with 1.5 mL of a DPPH methanolic solution (20 mg L^−1). Pure methanol was taken as control and ascorbic acid (vitamin C), vitamins A and E were used as a reference compounds. The absorbance was measured at 517 nm after 20 min of reaction. The % of DPPH decolouration of the sample was calculated according to the formula (Sharma and Bhat, [2009]).
Decolouration % = [1−(Abs SAMPLE/Abs CONTROL)]×100
The decolouration was plotted against the sample extract concentration and a logarithmic regression curve was established in order to calculate the IC50. The results are expressed as antiradical efficiency (AE), which is 1000-fold inverse of the IC50 value AE=1000/ IC50.

[2] = Ferric reducing antioxidant power (FRAP) assay; assay type: biochemical; details: for FRAP assay (C0.5FRAP): mean ± SD, n = 3, concentration equivalent to FeSO4 at 0.5 mmol/L, 37°C, 30 min, 593 nm; for FRAP potency compared with standard reference BHT: in words, BHT C0.5FRAP = 546.0 ± 13.6 μM
Procedure: The FRAP reagent was prepared by the addition of freshly prepared 20.0 mM FeCl3.6H2O solution, 10.0 mM of […] (TPTZ) solution and 300 mM sodium acetate buffer (pH 3.6) in a ratio of 1:1:10 (v/v/v). After that, Sample (our synthesized 2-oxo-2-phenylethylidenes-linked 2-oxo-benzo[1,4]oxazines 20a-ab) was added to 3 ml of freshly prepared FRAP reagent and this reaction mixture was incubated at 37°C temperature for 30 min. and the absorbance was measured at 593 nm. It is also noted that, a freshly prepared solution of FeSO4 was used for calibration of standard curve. The FRAP antioxidant capability were evaluated in terms of C0.5FRAP (the antioxidant capability of samples related to their concentration, which is equivalent to that of FeSO4 at 0.5 mmol/L) (Benzie and Strain, [1996]).
The FRAP assay was deliberated using the method as illustrated by Benzie and Strain (Benzie and Strain, [1996]). […] The reducing nature of an antioxidant depends on their property to donate a hydrogen atom for the breaking of the free radical chain, which is responsible for oxidative stress etc.

| Compound | DPPH assay IC50 [1] | FRAP assay (C0.5FRAP) [2] | FRAP potency compared with standard reference BHT [2] | melting point |
| --- | --- | --- | --- | --- |
| O=C1O[C@H]([C@@H](O)CO)C(O)=C1O [Ascorbic acid, reference compound] | 4.57 µg/mL |  |  |  |
| Cc1cc(C(C)(C)C)c(O)c(C(C)(C)C)c1 [BHT, reference compound] |  | 546.0 ± 13.6 µM |  |  |
| O=C1Oc2ccccc2N/C1=C\C(=O)c1ccccc1 [Compound 20a, (Z)-3-(2-oxo-2-phenylethylidene)-3,4-dihydro-2H-benzo[b][1,4]oxazin-2-one] | 10.2 ± 0.08 µg/mL | 611.5 ± 23.2 µM | less active than BHT |  |
| O=C1Oc2cc([N+](=O)[O-])ccc2N/C1=C\C(=O)c1ccc(Br)cc1 [Compound 20aa, (Z)-3-(2-(4-bromophenyl)-2-oxoethylidene)-7-nitro-3,4-dihydro-2H-benzo[b][1,4]oxazin-2-one] | 28.37 ± 0.16 µg/mL | 518.6 ± 17.6 µM | more potent than standard reference BHT | 230 to 232 °C |
| COc1ccc(C(=O)/C=C2\Nc3ccc([N+](=O)[O-])cc3OC2=O)cc1 [Compound 20ab, (Z)-3-(2-(4-methoxyphenyl)-2-oxoethylidene)-7-nitro-3,4-dihydro-2H-benzo[b][1,4]oxazin-2-one] | 43.6 ± 0.74 µg/mL |  |  |  |
| O=C1Oc2ccc(Cl)cc2N/C1=C\C(=O)c1ccccc1 [Compound 20c, (Z)-6-chloro-3-(2-oxo-2-phenylethylidene)-3,4-dihydro-2H-benzo[b][1,4]oxazin-2-one] | 28.8 ± 0.6 µg/mL | 467.8 ± 22.4 µM | greater potency; also recorded: more potent than standard reference BHT | 185 to 187 °C |
| O=C1Oc2ccc(Cl)cc2N/C1=C\C(=O)c1ccc(F)cc1 [Compound 20d, (Z)-6-chloro-3-(2-(4-fluorophenyl)-2-oxoethylidene)-3,4-dihydro-2H-benzo[b][1,4]oxazin-2-one] | 45.2 ± 0.92 µg/mL | 732.7 ± 41.6 µM |  | 155 to 157 °C |
| O=C1Oc2ccc(Cl)cc2N/C1=C\C(=O)c1ccc(Cl)cc1 [Compound 20e, (Z)-6-chloro-3-(2-(4-chlorophenyl)-2-oxoethylidene)-3,4-dihydro-2H-benzo[b][1,4]oxazin-2-one] | 92.2 ± 1.54 µg/mL |  |  | 182 to 185 °C |
| O=C1Oc2ccc(Cl)cc2N/C1=C\C(=O)c1ccc(Cl)cc1Cl [Compound 20f, (Z)-6-chloro-3-(2-(2,4-dichlorophenyl)-2-oxoethylidene)-3,4-dihydro-2H-benzo[b][1,4]oxazine-2-One] | 56.6 ± 1.12 µg/mL |  |  | 135 to 137 °C |
| O=C1Oc2ccc(Cl)cc2N/C1=C\C(=O)c1ccc(Br)cc1 [Compound 20g, (Z)-3-(2-(4-bromophenyl)-2-oxoethylidene)-6-chloro-3,4-dihydro-2H-benzo[b][1,4]oxazin-2-one] | 61.2 ± 1.23 µg/mL | 798.6 ± 32.5 µM |  | 175 to 177 °C |
| Cc1ccc(C(=O)/C=C2\Nc3cc(Cl)ccc3OC2=O)cc1 [Compound 20h, (Z)-6-chloro-3-(2-oxo-2-(p-tolyl)ethylidene)-3,4-dihydro-2H-benzo[b][1,4]oxazin-2-one] | 44.8 ± 0.81 µg/mL | 821.9 ± 38.7 µM |  | 160 to 162 °C |
| COc1ccc(C(=O)/C=C2\Nc3cc(Cl)ccc3OC2=O)cc1 [Compound 20i, (Z)-6-chloro-3-(2-(4-methoxyphenyl)-2-oxoethylidene)-3,4-dihydro-2H-benzo[b][1,4]oxazin-2-one] | 34.9 ± 0.73 µg/mL | 648.2 ± 29.5 µM |  |  |
| Cc1ccc2c(c1)N/C(=C\C(=O)c1ccc(F)cc1)C(=O)O2 [Compound 20j, (Z)-3-(2-(4-fluorophenyl)-2-oxoethylidene)-6-methyl-3,4-dihydro-2H-benzo[1,4]oxazin-2-one] | 34.4 ± 0.7 µg/mL | 502.6 ± 18.2 µM | more potent than standard reference BHT |  |
| Cc1ccc2c(c1)N/C(=C\C(=O)c1ccc(Cl)cc1Cl)C(=O)O2 [Compound 20k, (Z)-3-[2-(2,4-dichloro-phenyl)-2-oxo-ethylidene]-6-methyl-3,4-dihydro-benzo[1,4]oxazin-2-one] | 43.6 ± 0.92 µg/mL | 652.5 ± 30.6 µM |  | 142 to 145 °C |
| COc1ccc(C(=O)/C=C2\Nc3cc(C)ccc3OC2=O)cc1 [Compound 20l, (Z)-3-[2-(4-methoxy-phenyl)-2-oxo-ethylidene]-6-methyl-3,4-dihydro-benzo[1,4]oxazin-2-one] | 43.8 ± 0.85 µg/mL |  |  | 180 to 182 °C |
| Cc1cc(Br)c2c(c1)N/C(=C\C(=O)c1ccccc1)C(=O)O2 [Compound 20m, (Z)-8-bromo-6-methyl-3-(2-oxo-2-phenylethylidene)-3,4-dihydro-2H-benzo[b][1,4]oxazin-2-one] | 24.4 ± 0.46 µg/mL | 536.7 ± 21.4 µM | greater potency; also recorded: more potent than standard reference BHT |  |
| Cc1cc(Br)c2c(c1)N/C(=C\C(=O)c1ccc(F)cc1)C(=O)O2 [Compound 20n, (Z)-8-bromo-3-(2-(4-fluorophenyl)-2-oxoethylidene)-6-methyl-3,4-dihydro-2H-benzo[b][1,4] oxazin-2-one] | 16.9 ± 0.72 µg/mL | 482.5 ± 35.5 µM | more potent than standard reference BHT |  |
| Cc1cc(Br)c2c(c1)N/C(=C\C(=O)c1ccc(Cl)cc1Cl)C(=O)O2 [Compound 20o, (Z)-8-bromo-3-(2-(2,4-dichlorophenyl)-2-oxoethylidene)-6-methyl-3,4-dihydro-2H-benzo [b][1,4]oxazin-2-one] | 22.5 ± 0.64 µg/mL | 641.6 ± 28.7 µM |  |  |
| Cc1cc(Br)c2c(c1)N/C(=C\C(=O)c1ccc(Br)cc1)C(=O)O2 [Compound 20p, (Z)-8-bromo-3-(2-(4-bromophenyl)-2-oxoethylidene)-6-methyl-3,4-dihydro-2H-benzo[b] [1,4]oxazin-2-one] | 44.3 ± 0.45 µg/mL | >1000 µM |  | 259 to 260 °C |
| Cc1ccc(C(=O)/C=C2\Nc3cc(C)cc(Br)c3OC2=O)cc1 [Compound 20q, (Z)-8-bromo-6-methyl-3-(2-oxo-2-(p-tolyl)ethylidene)-3,4-dihydro-2H-benzo[b][1,4]oxazin-2-one] | 36.24 ± 0.27 µg/mL |  |  | 219 to 220 °C |
| Cc1ccc2c(c1)N/C(=C\C(=O)c1ccc([N+](=O)[O-])cc1)C(=O)O2 [Compound 20r, (Z)-6-methyl-3-(2-(4-nitrophenyl)-2-oxoethylidene)-3,4-dihydro-2H-benzo[1,4]oxazin-2-one] | 12.23 ± 0.05 µg/mL | 328.6 ± 25.8 µM | potent activity than BHT; also recorded: more potent than standard reference BHT |  |
| O=C1Oc2ccccc2N/C1=C\C(=O)c1ccc([N+](=O)[O-])cc1 [Compound 20s, (Z)-3-(2-(4-nitrophenyl)-2-oxoethylidene)-3,4-dihydro-2H-benzo[b][1,4]oxazin-2-one] | 21.3 ± 0.28 µg/mL | 618.4 ± 23.9 µM | less active | 207 to 209 °C |
| O=C1Oc2ccc([N+](=O)[O-])cc2N/C1=C\C(=O)c1ccc(F)cc1 [Compound 20u, (Z)-3-(2-(4-fluorophenyl)-2-oxoethylidene)-6-nitro-3,4-dihydro-2H-benzo[b][1,4]oxazin-2-one] | 32.1 ± 0.52 µg/mL | 424.5 ± 19.7 µM | more potent than standard reference BHT | > 250 °C |
| COc1ccc(C(=O)/C=C2\Nc3cc([N+](=O)[O-])ccc3OC2=O)cc1 [Compound 20v, (Z)-3-(2-(4-methoxyphenyl)-2-oxoethylidene)-6-nitro-3,4-dihydro-2H-benzo[b][1,4]oxazin-2-one] | 43.6 ± 0.92 µg/mL |  |  | 195 to 197 °C |
| O=C1Oc2cc([N+](=O)[O-])ccc2N/C1=C\C(=O)c1ccccc1 [Compound 20w, (Z)-7-nitro-3-(2-oxo-2-phenylethylidene)-3,4-dihydro-2H-benzo[b][1,4]oxazin-2-one] | 12.53 ± 0.09 µg/mL | 597.4 ± 26.4 µM | less active than BHT | 240 to 242 °C |
| O=C1Oc2cc([N+](=O)[O-])ccc2N/C1=C\C(=O)c1ccc(Cl)cc1 [Compound 20y, (Z)-3-(2-(4-chlorophenyl)-2-oxoethylidene)-7-nitro-3,4-dihydro-2H-benzo[b][1,4]oxazin-2-one] | 19.8 ± 0.35 µg/mL | 708.2 ± 27.1 µM |  | 205 to 207 °C |
